Test results published in PubChem BioAssay (NCI).
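Assay format: 96-well plates, 48-hour exposure. At the TGI there is no net growth.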

Key:
Assay in all cases: NCI-60 cell line screen, 48 h
[1] = test system: HCT-15 colon
[2] = test system: NCI-H23 lung
[3] = test system: SK-MEL-5 melanoma
[4] = test system: SNB-75 CNS
[5] = test system: OVCAR-3 ovarian
[6] = test system: RXF 393 renal
[7] = test system: SF-268 CNS
[8] = test system: CCRF-CEM leukemia
[9] = test system: KM12 colon
[10] = test system: U251 CNS
[11] = test system: UACC-257 melanoma
[12] = test system: EKVX NSCLC
[13] = test system: LOX IMVI melanoma
[14] = test system: IGROV1 ovarian
[15] = test system: HCT-116 colon
[16] = test system: ACHN renal
[17] = test system: SF-539 CNS
[18] = test system: COLO 205 colon
[19] = test system: HOP-92 NSCLC
[20] = test system: DMS 273 small cell lung
[21] = test system: RPMI-8226 leukemia
[22] = test system: HOP-18 NSCLC
[23] = test system: DLD-1 colon
[24] = test system: M19-MEL melanoma
[25] = test system: SK-MEL-2 melanoma
[26] = test system: XF 498 CNS
[27] = test system: UACC-62 melanoma
[28] = test system: TK-10 renal
[29] = test system: K-562 leukemia
[30] = test system: OVCAR-8 ovarian
[31] = test system: SF-295 CNS
[32] = test system: SK-MEL-28 melanoma
[33] = test system: HT29 colon
[34] = test system: OVCAR-5 ovarian
[35] = test system: HOP-62 NSCLC
[36] = test system: MALME-3M melanoma
[37] = test system: CAKI-1 renal
[38] = test system: SN12C renal
[39] = test system: SNB-78 CNS
[40] = test system: SW-620 colon
[41] = test system: A549 NSCLC
[42] = test system: NCI-H460 lung
[43] = test system: A498 renal
[44] = test system: 786-0 renal
[45] = test system: OVCAR-4 ovarian
[46] = test system: SNB-19 CNS
[47] = test system: DMS 114 small cell lung
[48] = test system: SR leukemia
[49] = test system: KM20L2 colon
[50] = test system: UO-31 renal
[51] = test system: M14 melanoma
[52] = test system: HL-60(TB) leukemia
[53] = test system: SK-OV-3 ovarian
[54] = test system: NCI-H226 lung
[55] = test system: HCC-2998 colon
[56] = test system: NCI-H522 lung
[57] = test system: MOLT-4 leukemia
[58] = test system: MDA-N
[59] = test system: PC-3 prostate
[60] = test system: MDA-MB-231 breast
[61] = test system: LXFL 529 NSCLC
[62] = test system: HS 578T breast
[63] = test system: DU-145 prostate
[64] = test system: MDA-MB-435
[65] = test system: BT-549 breast
[66] = test system: MCF7 breast
[67] = test system: NCI/ADR-RES ovarian

## COc1ccc(C(=O)NCCC2=CCCCC2)cc1
[1]
  TGI: > 100 µM
[2]
  TGI: > 100 µM
[3]
  TGI: > 100 µM
[4]
  TGI: > 100 µM
[5]
  TGI: > 100 µM
[6]
  TGI: > 100 µM
[7]
  TGI: > 100 µM
[8]
  TGI: > 100 µM
[9]
  TGI: > 100 µM
[10]
  TGI: > 100 µM
[11]
  TGI: > 100 µM
[12]
  TGI: > 100 µM
[13]
  TGI: > 100 µM
[14]
  TGI: > 100 µM
[15]
  TGI: > 100 µM
[16]
  TGI: > 100 µM
[17]
  TGI: > 100 µM
[18]
  TGI: > 100 µM
[19]
  TGI: > 100 µM
[20]
  TGI: > 100 µM
[21]
  TGI: > 100 µM
[22]
  TGI: > 100 µM
[23]
  TGI: > 100 µM
[24]
  TGI: > 100 µM
[25]
  TGI: > 100 µM
[26]
  TGI: > 100 µM
[27]
  TGI: > 100 µM
[28]
  TGI: > 100 µM
[29]
  TGI: > 100 µM
[30]
  TGI: > 100 µM
[31]
  TGI: > 100 µM
[32]
  TGI: > 100 µM
[33]
  TGI: > 100 µM
[34]
  TGI: > 100 µM
[35]
  TGI: > 100 µM
[36]
  TGI: > 100 µM
[37]
  TGI: > 100 µM
[38]
  TGI: > 100 µM
[39]
  TGI: > 100 µM
[40]
  TGI: > 100 µM
[41]
  TGI: > 100 µM
[42]
  TGI: > 100 µM
[43]
  TGI: > 100 µM
[44]
  TGI: > 100 µM
[45]
  TGI: > 100 µM
[46]
  TGI: > 100 µM
[47]
  TGI: > 100 µM
[48]
  TGI: > 100 µM
[49]
  TGI: > 100 µM

## C1OC1C1CO1 (centres undefined)
[50]
  TGI: > 100 µM
[1]
  TGI: > 100 µM
[2]
  TGI: > 100 µM
[3]
  TGI: > 100 µM
[4]
  TGI: > 100 µM
[5]
  TGI: > 100 µM
[51]
  TGI: > 100 µM
[6]
  TGI: > 100 µM
[52]
  TGI: 64.2 µM
[7]
  TGI: > 100 µM
[8]
  TGI: > 100 µM
[9]
  TGI: > 100 µM
[10]
  TGI: > 100 µM
[11]
  TGI: > 100 µM
[12]
  TGI: > 100 µM
[13]
  TGI: > 100 µM
[14]
  TGI: > 100 µM
[15]
  TGI: > 100 µM
[17]
  TGI: > 100 µM
[18]
  TGI: > 100 µM
[19]
  TGI: > 100 µM
[20]
  TGI: > 100 µM
[21]
  TGI: > 100 µM
[22]
  TGI: > 100 µM
[53]
  TGI: > 100 µM
[23]
  TGI: > 100 µM
[24]
  TGI: > 100 µM
[54]
  TGI: > 100 µM
[25]
  TGI: > 100 µM
[26]
  TGI: > 100 µM
[27]
  TGI: > 100 µM
[28]
  TGI: > 100 µM
[29]
  TGI: > 100 µM
[30]
  TGI: > 100 µM
[55]
  TGI: > 100 µM
[31]
  TGI: > 100 µM
[32]
  TGI: > 100 µM
[33]
  TGI: > 100 µM
[34]
  TGI: > 100 µM
[35]
  TGI: > 100 µM
[36]
  TGI: > 100 µM
[37]
  TGI: > 100 µM
[38]
  TGI: > 100 µM
[39]
  TGI: > 100 µM
[40]
  TGI: > 100 µM
[56]
  TGI: > 100 µM
[41]
  TGI: > 100 µM
[44]
  TGI: > 100 µM
[45]
  TGI: > 100 µM
[46]
  TGI: > 100 µM
[47]
  TGI: > 100 µM
[57]
  TGI: > 100 µM
[48]
  TGI: > 100 µM
[49]
  TGI: > 100 µM

## COc1ccc(-c2nc(N)n(C)c2SSc2c(-c3ccc(OC)cc3)nc(N)n2C)cc1
[50]
  TGI: 11.9 µM
[1]
  TGI: 8.73 µM
[2]
  TGI: 17.8 µM
[3]
  TGI: 4.15 µM
[4]
  TGI: 24.8 µM
[5]
  TGI: 21.2 µM
[51]
  TGI: 4.87 µM
[58]
  TGI: 6 µM
[6]
  TGI: 6.63 µM
[52]
  TGI: 14.1 µM
[7]
  TGI: 33.7 µM
[8]
  TGI: 11.9 µM
[9]
  TGI: 26.7 µM
[10]
  TGI: 26.2 µM
[11]
  TGI: 14.5 µM
[12]
  TGI: 44.3 µM
[59]
  TGI: 18.2 µM
[13]
  TGI: 4.22 µM
[14]
  TGI: 29.4 µM
[60]
  TGI: 19.7 µM
[15]
  TGI: 7.49 µM
[16]
  TGI: 8.3 µM
[17]
  TGI: 13.4 µM
[18]
  TGI: 4.76 µM
[61]
  TGI: 3.4 µM
[19]
  TGI: 6.21 µM
[20]
  TGI: 13.4 µM
[21]
  TGI: 7.46 µM
[22]
  TGI: 17.8 µM
[53]
  TGI: 32.6 µM
[23]
  TGI: 15.3 µM
[24]
  TGI: 4.67 µM
[54]
  TGI: 37.3 µM
[25]
  TGI: 29.5 µM
[62]
  TGI: 29.7 µM
[26]
  TGI: 4.92 µM
[27]
  TGI: 10 µM
[28]
  TGI: 27.6 µM
[29]
  TGI: 15.5 µM
[30]
  TGI: 16.3 µM
[55]
  TGI: 31.8 µM
[31]
  TGI: 25.5 µM
[32]
  TGI: 10.2 µM
[33]
  TGI: 28.5 µM
[34]
  TGI: 14.5 µM
[63]
  TGI: 31.4 µM
[35]
  TGI: 32.1 µM
[36]
  TGI: 22.2 µM
[37]
  TGI: 24.6 µM
[38]
  TGI: 25.5 µM
[64]
  TGI: 13.9 µM
[40]
  TGI: 5.09 µM
[56]
  TGI: 3.57 µM
[41]
  TGI: 45.4 µM
[42]
  TGI: 42.5 µM
[65]
  TGI: 5.54 µM
[43]
  TGI: 35.7 µM
[44]
  TGI: 29.2 µM
[45]
  TGI: 15.9 µM
[46]
  TGI: 27.2 µM
[66]
  TGI: 23 µM
[67]
  TGI: 35.1 µM
[47]
  TGI: 4.61 µM
[57]
  TGI: 5.1 µM
[48]
  TGI: 5.48 µM
[49]
  TGI: 30.9 µM
